{"source": "paper PMC11054303", "about": "“Design and Synthesis of Novel N-Benzylidene Derivatives of 3-Amino-4-imino-3,5-dihydro-4H-chromeno[2,3-d]pyrimidine under Microwave, In Silico ADME Predictions, In Vitro Antitumoral Activities and In Vivo Toxicity” (Pharmaceuticals, 2024)", "key": {"Huh7 D12": {"test_system": "Huh7 D12", "test": "Antiproliferative assay, Huh7 D12", "assay_type": "cell-based, human", "method": "(§1) The potential antiproliferative activity of these novel 3-(N-phenylmethyliden)amino-4-imino-3,5-dihydro-4H-chromeno[2,3-d]pyrimidine 10(a-i) and 10-(N-phenylmethyliden)amino-11-imino-11H-naphto[1′,2′:5,6]pyrano[2,3-d]pyrimidine 10(j-l) was evaluated in a panel of eight tumoral cell lines and in diploid skin fibroblasts used as normal cell lines for control. For these antitumor assays, chosen cell lines represent diverse types of human cancer, which are, respectively, human hepatocellular carcinoma (Huh7 D12), human colon adenocarcinoma (Caco2), human breast adenocarcinoma (MDA-MB231), MDA-MB468 for human breast carcinoma which correspond to the Triple Negative Breast Cancer (TNBC), human colon carcinoma (HCT116), PC3 as cell line initiated from bone metastasis of grade IV prostatic adenocarcinoma from a person, MCF7 as breast cancer line isolated from a person and PANC1, as human pancreatic cancer cell line. The potential antiproliferative activity was preliminarily evaluated in vitro at a 25 μM single dose.\n(§2) The IC50 was calculated from the full dose-response curve and used as a parameter for the antiproliferative activity of the new compounds.\n(§3) Skin diploid fibroblastic cells were provided by BIOPREDIC International Company (Rennes, France). Huh-7D12 (Ref ECACC: 01042712), Caco2 (Ref ECACC: 86010202), MDA-MB-231 (Ref ECACC: 92020424), MDA-MB-468, HCT-116 (Ref ECACC: 91091005), PC3 (Ref ECACC: 90112714), and MCF7 cell lines were obtained from the ECACC collection. PANC1 cell lines, a generous gift of LBAI Inserm 1227 (Brest, France). Cells were grown according to ECACC recommendations in DMEM for Huh-D12, MDA-MB-231, MDA-MB-468 and fibroblast, in EMEM for Caco2, in McCoy’s for HCT-116 and RPMI for PC3 at 37 °C and 5% CO2. All culture media with 10% of FBS, 1% of penicillin-streptomycin and 2 mM glutamine.\n(§4) Chemicals were solubilized in DMSO at a concentration of 10 mM (stock solution) and diluted in a culture medium to the desired final concentrations. […] The toxicity test of the chemicals on these cells was as follows: 2 × 10^3 cells for HCT-116 cells or 4 × 10^3 for the other cells were seeded in 96-multi-well plates in triplicate and left for 24 h for attachment, spreading and growing. Then, cells were exposed for 48 h to increasing concentrations of chemicals, ranging from 0.1 μM to 25 μM, in a final volume of 120 μL of culture medium. After 48 h of treatment, cells were washed in PBS and fixed in a cooled 90% ethanol/5% acetic acid solution for 20 min. The nuclei were stained with Hoechst 3342 (B2261 Merck Sigma-Aldrich) and counted. Image acquisition and analysis were performed using automated imaging analysis with a Cellomics Arrayscan VTI/HCS Reader (Thermo/Scientific, Waltham, MA, USA). The survival percentages were calculated as the percentage of cell number after chemical treatment over cell number after DMSO treatment. The IC50 was graphically determined."}, "MDA MB468": {"test_system": "MDA MB468", "test": "Antiproliferative assay, MDA MB468", "assay_type": "cell-based, human", "method": "as §1, §2, §3, §4"}, "[1]": {"test_system": "zebrafish Danio rerio embryos", "test": "Angiogenesis of vessels in mCherry transgenic zebrafish embryos", "assay_type": "in vivo", "from_the_text": "Another interest of zebrafish Danio rerio is the possibility to deeply evaluate the effects of angiogenic compounds. In our model, the formation of most vessels is complete, the circulation is present, and the heart is beating after 28 hpf of development. Angiogenesis begins in the somites and in the anterior portion of the embryos. Many zebrafish blood vessels form by angiogenic sprouting and appear to require the same proteins required for blood vessel growth in mammals. By using the mCherry line transgenic zebrafish, it is possible to analyze the direct effect of a compound on the angiogenesis of dorsal vessels. Zebrafish embryos can survive up to a week without an intact circulatory system because defective vessel formation has no immediate lethal effect.\nThese experiments were performed in four technical replicates."}, "Caco2": {"test_system": "Caco2", "test": "Antiproliferative assay, Caco2", "assay_type": "cell-based, human", "conditions": "Homo sapiens, Caco-2; 48 h incubation; average of three assays, standard error ± 0.5 μM", "method": "as §1, §2, §3, §4"}, "[2]": {"test": "Antiproliferative assay, Caco2", "assay_type": "cell-based, human", "conditions": "human, Caco-2; SI = IC50 fibroblasts/IC50 on Caco2; read-out: Selectivity Index (SI) Caco2", "method": "as §1, §2, §3, §4"}, "MDA MB231": {"test_system": "MDA MB231", "test": "Antiproliferative assay, MDA MB231", "assay_type": "cell-based, human", "method": "as §1, §2, §3, §4"}, "HCT 116": {"test_system": "HCT 116", "test": "Antiproliferative assay, HCT 116", "assay_type": "cell-based, human", "method": "as §1, §2, §3, §4"}, "[3]": {"test_system": "zebrafish Danio rerio embryos", "test": "Zebrafish embryo toxicity assay (Zebratox, FET)", "experimental": "Fertilized eggs at 24–48 h post-fertilization (hpf) were selected and transferred to a 96-well plate (1 embryo/well). […] DMSO (0.6%) was used as vehicle control for the test compounds. The exposure duration continued up to 72 hpf because it is the endpoint of embryonic development [41]. The dead embryos were eliminated, and the fertilized eggs were imaged at 0, 24, 48 and 72 hpf.\nEggs were collected 2 h post-fertilization (hpf) and kept in glass Petri dishes containing water for subsequent examination under a binocular microscope to confirm fertilization. […] Chemical treatments were performed by adding DMSO alone (negative control), or test molecule. These experiments were performed in four technical replicates.\nThe experiments were performed using a Zeiss inverted fluorescent microscope (Observer Z1). The zebrafish toxicological test (Zebratox) was realized as follows: the 24 h post-fertilization embryos were arrayed by hand with one embryo per well in black-walled 96-well microplates for fluorescence assays (Perkin Elmer, Waltham, MA, USA). The embryos were treated before hatching from 0 to 72 h post-fertilization. The 20 mM DMSO stock chemicals were diluted in fish water and added to the wells at final concentrations from 0.0 2µM to 5 μM. The negative control (0.25% DMSO) was added to each replicate plate. The experiments were realized in triplicate in three independent plates. […] The zebrafish fertilized eggs were provided by the ImPACcell-Biosit Zebrafish facilities (Rennes, France)."}, "MCF7": {"test_system": "MCF7", "test": "Antiproliferative assay, MCF7", "assay_type": "cell-based, human", "method": "as §1, §2, §3, §4"}, "[4]": {"conditions": "48 and 72 hpf treatment, up to 5 μM"}}, "note": "pIC50: −log10 of the molar value. Entries after “also recorded” stand apart in the source; their conditions may differ.", "data": [{"smiles": "COc1cccc2c1Oc1ncn(/N=C/c3ccccc3O)c(=N)c1C2", "note": "[10h, (3E) 3-N-(2-Hydroxyphenylmethylidene)amino-4-imino-9-methoxy-3,5-dihydro-4H-chromeno[2,3-d]pyrimidine]", "values": [{"measurement": "pIC50", "setting": "Huh7 D12; Homo sapiens, Huh-7D12, 48 h incubation, average of three assays, standard error ± 0.5 μM", "value": 6.64}, {"measurement": "Selectivity Index (SI) Huh7 D12", "setting": "Huh7 D12; SI = IC50 fibroblasts/IC50 on Huh7 D12", "value": "> 108.7"}, {"measurement": "pIC50", "setting": "MDA MB468; Homo sapiens, MDA-MB-468, 48 h incubation, average of three assays, standard error ± 0.5 μM", "value": 6.62}, {"measurement": "Selectivity Index (SI) MDA MB468", "setting": "MDA MB468; SI = IC50 fibroblasts/IC50 on MDA MB468", "value": "> 104.2"}, {"measurement": "effect on vessel angiogenesis", "setting": "[1]; 5 μM dose at 72 hpf", "value": "no angiogenic effect; also recorded: cannot observe an anti-angiogenic effect; also recorded: without delay in vessel angiogenesis"}, {"measurement": "effect on vessel angiogenesis", "setting": "[1]; [4]", "value": "without delay in vessel angiogenesis"}, {"measurement": "pIC50", "setting": "Caco2", "value": 6.52}, {"measurement": "selectivity ratio at 48 h", "setting": "[2]", "value": "> 83.3"}, {"measurement": "pIC50", "setting": "MDA MB231; Homo sapiens, MDA-MB-231, 48 h incubation, average of three assays, standard error ± 0.5 μM", "value": 6.52}, {"measurement": "Selectivity Index (SI) MDA MB231", "setting": "MDA MB231; SI = IC50 fibroblasts/IC50 on MDA MB231", "value": "> 83.3"}, {"measurement": "pIC50", "setting": "HCT 116; Homo sapiens, HCT-116, 48 h incubation, average of three assays, standard error ± 0.5 μM", "value": 6.62}, {"measurement": "Selectivity Index (SI) HCT 116", "setting": "HCT 116; SI = IC50 fibroblasts/IC50 on HCT 116", "value": "> 104.2"}, {"measurement": "hatching of the embryos", "setting": "[3]; 5 μM dose at 72 hpf", "value": "complete hatching"}, {"measurement": "toxic effect on zebrafish embryos", "setting": "[3]; 5 μM dose at 72 hpf", "value": "no toxic effect; also recorded: without toxic effect"}, {"measurement": "hatching of the embryos", "setting": "[3]; [4]", "value": "complete hatching"}, {"measurement": "toxic effect on zebrafish embryos", "setting": "[3]; [4]", "value": "no toxic effect"}, {"measurement": "pIC50", "setting": "MCF7; Homo sapiens, MCF7, 48 h incubation, average of three assays, standard error ± 0.5 μM", "value": 6.57}, {"measurement": "Selectivity Index (SI) MCF7", "setting": "MCF7; SI = IC50 fibroblasts/IC50 on MCF7", "value": "> 92.6"}]}]}
